Source: US20260070945A1, “MACROCYCLIC IMMUNOMODULATORS” (Bristol-Myers Squibb Company, priority 2022, published 2026)
Where a SMILES comes first, the peptide text is derived from it. Bridges are numbered along the chain shown (N, C = ends). [ ]: non-standard residue; d: D form. The star is where a group is joined. ξ: configuration not given here. Phe(4-COOH) = N[C@@H](Cc1ccc(C(=O)O)cc1)C(=O)O; Bip = N[C@@H](Cc1ccc(-c2ccccc2)cc1)C(=O)O; Aad = N[C@@H](CCCC(=O)O)C(=O)O; Cha = N[C@@H](CC1CCCCC1)C(=O)O; Ile(3ξ) = CCC(C)[C@H](N)C(=O)O; Thr(3ξ) = CC(O)[C@H](N)C(=O)O; Carboxymethyl = O=C(O)C*; NMeA = CN[C@@H](C)C(=O)O; Orn = NCCC[C@H](N)C(=O)O; Aun = NCCCCCCCCCCC(=O)O; Dab = NCC[C@H](N)C(=O)O; AEEA = NCCOCCOCC(=O)O

The compounds below were run against T1, PD-1/PD-L1 interaction (PE-labeled human PD-L1-Ig binding to Jurkat cell line over-expressing human PD-1) (Homo sapiens, UniProt Q15116) (assay: Jurkat-PD-1 Cell Binding High-Content Screening Assay (CBA)). Details: Jurkat-hPD-1 cells, PE-labeled PD-L1-Ig 20 nM final; read-out: Jurkat HPD1 PDL1 IC50.
T1 construct: expressed in transfected cells; host or cells: Jurkat
T1 sequence (Q15116 25-288): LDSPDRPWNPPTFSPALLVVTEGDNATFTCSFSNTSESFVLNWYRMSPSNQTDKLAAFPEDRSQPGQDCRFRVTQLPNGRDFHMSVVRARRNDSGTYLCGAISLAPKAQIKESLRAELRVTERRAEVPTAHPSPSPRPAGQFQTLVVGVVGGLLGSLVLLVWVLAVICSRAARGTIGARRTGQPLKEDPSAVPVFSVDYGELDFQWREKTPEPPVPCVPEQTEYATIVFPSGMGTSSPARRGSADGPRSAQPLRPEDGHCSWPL
Procedure, shortened: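 Jurkat-hPD-1 cells (8×10^3/well) in DMEM with 10% fetal calf serum were preincubated with compound for 2 h at 37 °C. PE-labeled PD-L1-Ig was then added at 20 nM final for 1 h. Cells were fixed in paraformaldehyde with Hoechst 33342, washed and imaged by high-content imaging.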

Compound	IC50 [nM]
CCC(C)[C@@H]1NC(=O)[C@H](Cc2ccc(-c3ccccc3)cc2)NC(=O)[C@H](C(C)C)NC(=O)[C@H](Cc2c[nH]c3ccccc23)NC(=O)[C@H](CC(=O)O)NC(=O)[C@H](Cc2ccc(C(=O)O)cc2)NC(=O)[C@H](Cc2ccc(OCC(=O)O)cc2)NC(=O)CSC[C@@H](C(=O)N[C@@H](CCCN)C(=O)NCCOCCOCC(=O)NCCCCCCCCCCC(=O)O)NC(=O)[C@H](C(C)O)NC(=O)[C@H](C(C)C)NC(=O)[C@H](CC2CCCCC2)NC(=O)[C@H](CCN)NC(=O)[C@@H](CC(C)C)NC(=O)[C@H](C)N(C)C1=O (stereo partly drawn) [Example 2149] ({CH2CO}-Y(Carboxymethyl)[Phe(4-COOH)]DWV[Bip][Ile(3ξ)][NMeA][dL][Dab][Cha]V[Thr(3ξ)]C[Orn][AEEA][Aun]-OH; thioether N-14)	17.7
CC(C)C[C@@H]1NC(=O)[C@H](Cc2c[nH]c3ccccc23)NC(=O)[C@H](CC(=O)O)NC(=O)[C@H](Cc2ccc(C(=O)O)cc2)NC(=O)[C@H](Cc2ccc(OCC(=O)O)cc2)NC(=O)CSC[C@@H](C(=O)N[C@@H](CCCN)C(=O)NCCOCCOCC(=O)NCCCCCCCCCCC(=O)O)NC(=O)[C@H](CCN)NC(=O)[C@H](C(C)C)NC(=O)[C@H](CC2CCCCC2)NC(=O)[C@H](CCN)NC(=O)[C@@H](CC(C)C)NC(=O)[C@H](C)N(C)C(=O)[C@H](C(C)C)NC(=O)[C@H](Cc2ccc(-c3ccccc3)cc2)NC1=O [Example 2150] ({CH2CO}-Y(Carboxymethyl)[Phe(4-COOH)]DWL[Bip]V[NMeA][dL][Dab][Cha]V[Dab]C[Orn][AEEA][Aun]-OH; thioether N-14)	14.1
CC(C)C[C@@H]1NC(=O)[C@H](Cc2c[nH]c3ccccc23)NC(=O)[C@H](CC(=O)O)NC(=O)[C@H](Cc2ccc(C(=O)O)cc2)NC(=O)[C@H](Cc2ccc(OCC(=O)O)cc2)NC(=O)CSC[C@@H](C(=O)N[C@@H](CCCN)C(=O)NCCOCCOCC(=O)NCCCCCCCCCCC(=O)O)NC(=O)[C@H](CCCCN)NC(=O)[C@H](C(C)C)NC(=O)[C@H](CC2CCCCC2)NC(=O)[C@H](CCN)NC(=O)[C@@H](CC(C)C)NC(=O)[C@H](C)N(C)C(=O)[C@H](C(C)C)NC(=O)[C@H](Cc2ccc(-c3ccccc3)cc2)NC1=O [Example 2151] ({CH2CO}-Y(Carboxymethyl)[Phe(4-COOH)]DWL[Bip]V[NMeA][dL][Dab][Cha]VKC[Orn][AEEA][Aun]-OH; thioether N-14)	8.5

Continued by falling IC50, values first:

IC50 [nM]	Compound
54.1	CC(C)C[C@@H]1NC(=O)[C@H](Cc2c[nH]c3ccccc23)NC(=O)[C@H](CC(=O)O)NC(=O)[C@H](Cc2ccc(O)cc2)NC(=O)[C@H](Cc2ccccc2)NC(=O)CSC[C@@H](C(=O)N[C@@H](CCCN)C(=O)NCCOCCOCC(=O)NCCCCCCCCCCC(=O)O)NC(=O)[C@H](CO)NC(=O)[C@H](C(C)C)NC(=O)[C@H](CC2CCCCC2)NC(=O)[C@H](CCN)NC(=O)[C@@H](CC(C)C)NC(=O)[C@H](C)N(C)C(=O)[C@H](C(C)C)NC(=O)[C@H](Cc2ccc(-c3ccccc3)cc2)NC1=O [Example 2148] ({CH2CO}-FYDWL[Bip]V[NMeA][dL][Dab][Cha]VSC[Orn][AEEA][Aun]-OH; thioether N-14)
19.9	CC(C)C[C@@H]1NC(=O)[C@H](Cc2c[nH]c3ccccc23)NC(=O)[C@H](CC(=O)O)NC(=O)[C@H](Cc2ccc(C(=O)O)cc2)NC(=O)[C@H](Cc2ccc(OCC(=O)O)cc2)NC(=O)CSC[C@@H](C(=O)N[C@@H](CCCN)C(=O)NCCOCCOCC(=O)NCCCCCCCCCCC(=O)O)NC(=O)[C@H](CCCCN)NC(=O)[C@H](C(C)C)NC(=O)[C@H](CC2CCCCC2)NC(=O)[C@H](CCCC(=O)O)NC(=O)[C@@H](CC(C)C)NC(=O)[C@H](C)N(C)C(=O)[C@H](C(C)C)NC(=O)[C@H](Cc2ccc(-c3ccccc3)cc2)NC1=O [Example 2152] ({CH2CO}-Y(Carboxymethyl)[Phe(4-COOH)]DWL[Bip]V[NMeA][dL][Aad][Cha]VKC[Orn][AEEA][Aun]-OH; thioether N-14)
